{"source": "patent US9688653B2", "about": "“Ethoxyphenyl thienyl compounds and methods for the treatment of bacterial infections” (Duke University, priority 2013, dated 2017)", "key": {"[1]": {"tested_on": "E. coli K1 strain UTI89", "test": "microbe, parasite or virus in culture", "conditions": "for % Inhibition at 100 μM: HTS primary screen", "text": "The ability of the […] to bind to bacterial capsule, infect, and lyse E. coli UT189 was used as the primary assay to identify the effects of screened compounds on bacterial capsule formation. The phenotypic end-point assay measured the fluorescence generated by cellular processing of Alamar Blue as a direct indicator of cell viability. A total of […] compounds were screened using the primary assay. […] Hits were further evaluated using […] secondary assays for alternative measurement of compound-induced reduction in bacterial capsule formation (secondary assays 1 and 2) and specificity (secondary assays 3 and 4). Confirmed actives with an SI>5 were further investigated and subjected to chemical optimization, followed by secondary assay evaluation. Secondary assays more closely characterized the ability of the compounds to reduce bacterial capsule formation and can be used to examine the mechanism of action of the compounds. The combination of primary assay (to measure capsule reduction), counter assay (for general eukaryotic cell toxicity) and secondary assay (to measure reduction in capsule formation and specificity) were combined to allow a determination of probe efficacy, selectivity, and specificity.\nA. Primary Assay: Screening for Inhibitors of Bacterial Capsule Biogenesis.\nPrimary assay: An end-point assay to measure the amount of K1 phage-induced bacterial cell lysis was employed to determine the compound effect on capsule biogenesis. K1 bacteriophage specifically binds the bacterial capsule during the initial stages of infection. Bacteria without capsule cannot be infected and lysed by the bacteriophage. […] A total of 338,740 compounds were screened at 100 μM in the primary screen Inhibition of phage lysis was calculated relative to the mean of the bacterial (positive) control on each microtiter plate. […] For calculation of S/B/Z value, and CV, the following formulae (in which SD stands for standard deviation) were used: S/B=mean signal/mean background; Z=1-3SD of sample+3SD of control mean of sample−mean of control; % CV=(SD mean signal/mean signal)×100.\nIC50 values were calculated using a 4 parameter Levenburg-Marquardt algorithm, with the maximum and minimum locked at 0 and 100 respectively.\nPrimary assay: The primary assay was conducted in the 1,536 well plate format. Bacterial cultures of E. coli K1 strain UTI89 (cystitis isolate) and isogenic capsule mutant strains (as controls for phage infection) were grown and prepared at the screening center immediately prior to use. Overnight starting cultures of UTI89 were grown at 37° C., and inoculated into 1 liter of LB (starting OD600˜0.03), which was sufficient for screening 40 plates (including ˜10% waste) and ˜40,000 compounds as single points.\nControl wells contained UTI89 (wt K1) with 0.5% DMSO as a simulated positive control; UTI89 with 0.5% DMSO and tetracycline for a negative growth control; and media plus vehicle control. 50 mL of LB Broth was inoculated with stock 150 μL E. coli UT189 and grown overnight at 37° C. The next day, cultures were diluted 1:75 in 1 L of LB Broth containing 0.5% DMSO. 3 μL of this culture was added to each plate well, and plates were incubated, inverted, at 37° C. for 2 hr. The K1F bacteriophage stock was diluted 1:8 in LB Broth containing 0.5% DMSO, and 1.5 μL of diluted phage (or media only) was added to the pre-plated test compound wells and appropriate control wells. The plates were centrifuged briefly, and then were incubated, inverted, at 37° C. for an additional 2 hr. Afterward, Alamar Blue reagent (Invitrogen, #DAL1100) was diluted 1:2 with LB broth and 1 μL was added to each plate well."}, "[2]": {"tested_on": "E. coli K1 strain UTI89", "test": "Secondary assay 2: T7 phage-mediated lysis assay", "assay_type": "cell-based, Escherichia coli", "conditions": "read-out: T7 phage IC50", "text": "D. Secondary Assay 2: Screening for Inhibitors of Bacterial Capsule Biogenesis—T7 Lysis Inhibition\nPurpose: This secondary assay measures the compound mechanistic specificity for inhibition of bacterial capsule formation and excludes inhibitors of phage replication using a different bacteriophage (T7). In this assay, an increase in phage-induced lysis correlates to a decrease in capsule formation.\nPurpose: This secondary assay measures the compound mechanistic specificity for inhibition of bacterial capsule formation using a different bacterial phage (T7). In this assay, an increase in phage-induced lysis correlates to a decrease in capsule formation.\nAssay Description: T7 phage-mediated lysis assay: This assay determined if the mechanism of action of the compound is inhibition of phage infectivity or replication. The T7 phage has a nearly identical genome to K1F, without encoding an endosialidase. Its cycle of replication is similar to that of K1F as well. However, T7 entry into E. coli is inhibited by K capsules. This secondary assay was conducted in the 96 well plate format. […] Compounds were added in quadruplicate to plates in a concentration dependent manner in the range of 100-0.39 μM, followed by addition of 100 μL of bacterial culture. 1% DMSO (final well concentration) was included. The plates were tape sealed and shaken vigorously for 1.5 hr. An initial OD600 reading was measured to identify compounds that cause growth retardation or bacterial killing in the absence of phage. Next, T7 phage (5 μL) was added to all of the test wells. The plates were resealed and shaken vigorously at 37° C., and measurements of OD600 for phage-mediated lysis were taken after 3 hr. True inhibitors of capsule yielded bacteria that were susceptible to T7 phage and lysed within 2 hr of the addition of phage. […] The positive control drug C7 (100 μM final well concentration) was used in this screen.\nT7 phage counter assay. This secondary assay was performed as previously described and was used to distinguish compounds with phage inhibitory effects from true polysaccharide capsule inhibitors. […] Thus, the presence of a capsule inhibits T7-mediated lysis. In this assay, an increase in phage-induced lysis correlates to a decrease in capsule formation. True inhibitors of capsule yielded bacteria that were susceptible to T7 phage and lysed within 2 hr of the addition of phage. […] The positive control molecule C7 (100 μM final well concentration) was used in this screen."}, "[3]": {"tested_on": "Bladder carcinoma 5637 cells", "test": "Cytotoxicity counterscreen, CellTiter Glo, 72 hr", "assay_type": "cell-based, human", "method": "B. Counterscreen: Cytotoxicity Screening for Potential Inhibitors of Bacterial Capsule Biogenesis.\nPurpose: This cell-based assay measures the cytotoxicity of compounds in bladder carcinoma 5637 cells using luminescent cell viability assay readout.\nCytotoxicity assay: The cytotoxicity assay was performed as described in Section 6: Appendix. Hit cytotoxicity and the 50% toxic concentration (CC50) was determined and compared to the IC50 to calculate the selectivity index.\nAssay Description: Cytotoxicity: Dose response testing (dose range=300-0.58 μM) established the hit cytotoxicity data. Compounds were plated in 384-well microplates in a stacked dose response format using the same doses used in the efficacy dose response. Bladder carcinoma 5637 cells were added to the compounds, and 72 hr later cell viability was measured using CellTiter Glo (38). Hit cytotoxicity and the 50% toxic concentration (TC50) was determined and compared to the IC50 to calculate the therapeutic index. Test compounds are serially diluted in a plate to plate matrix or stacked plate matrix. All 320 compounds in a source plate are diluted together resulting in a 10 point dose response dilution series. It is visualized as a serial dilution series proceeding vertically through a stack of plates with the high dose plate on top and the low dose plate on the bottom.\nControl Drug: Hyamine was used as a positive cytotoxic control. All wells contained 0.5% DMSO.\nPreparation of Bladder carcinoma 5637 cells: Cells are harvested and resuspended to 80,000 cells per ml in Complete DMEM/F12®.\nEndpoint Read: Following the three day incubation period, the assay plates were equilibrated to room temperature for 30 min and an equal volume (30 μL) of Cell Titer-Glo® reagent (Promega Inc.) is added to each well using a WellMate™ (Matrix, Hudson, N.H.) and plates are incubated for an additional 10 min at room temperature. At the end of the incubation, luminescence is measured using a Perkin Elmer Envision™ multi-label reader (PerkinElmer, Wellesley, Mass.) with an integration time of 0.1 s.\nCytotoxicity. Testing was performed essentially as previously described. Concentration-response testing was performed over a range 0.58-300 μM in a […] well plate format. Bladder carcinoma 5637 cells (ATCC HTB-9) were added to the compounds, and 72 hrs later cell viability was measured using CellTiter Glo (Promega). The 50% toxic concentration (TC50) was determined and compared to the IC50 to calculate the therapeutic index. Hyamine was used as a positive cytotoxic control. All wells contained 0.5% DMSO."}, "[4]": {"conditions": "read-out: K1 phage IC50 (inhibition of K1 capsule formation)"}}}
{"smiles": "CCOc1ccc(-c2cc(NC(=O)c3c(F)cccc3F)c(C(=O)OC)s2)cc1", "note": "[CID 16012549]", "values": [{"measurement": "IC50", "setting": "[1]; [4]", "value": "> 100", "unit": "µM"}]}
{"smiles": "CCOc1ccc(-c2cc(NC(=O)c3ccc(Br)o3)c(C(=O)O)s2)cc1", "note": "[CID 23602086, 3-(5-Bromofuran-2-carboxamido)-5-(4-ethoxyphenyl)thiophene-2-carboxylic acid]", "values": [{"measurement": "IC50", "setting": "[1]; [4]", "value": 3.42, "unit": "µM"}, {"measurement": "IC50", "setting": "[2]; Escherichia coli", "value": "< 10", "unit": "µM"}]}
{"smiles": "COc1ccc(-c2cc(NC(=O)c3c(F)cccc3F)c(C(=O)O)s2)cc1", "note": "[CID 53470430]", "values": [{"measurement": "IC50", "setting": "[1]; [4]", "value": "> 100", "unit": "µM"}]}
{"smiles": "O=C(O)c1sc(-c2ccc(OCC(F)(F)F)cc2)cc1NC(=O)c1c(F)cccc1F", "note": "[CID 56643002]", "values": [{"measurement": "IC50", "setting": "[1]; [4]", "value": 2.86, "unit": "µM"}]}
{"smiles": "CCCCOc1ccc(-c2cc(NC(=O)c3c(F)cccc3F)c(C(=O)O)s2)cc1", "note": "[CID 56643007]", "values": [{"measurement": "IC50", "setting": "[1]; [4]", "value": "< 0.78", "unit": "µM"}]}
{"smiles": "O=C(O)c1sc(-c2ccc(OCCC(F)(F)F)cc2)cc1NC(=O)c1c(F)cccc1F", "note": "[CID 56643020]", "values": [{"measurement": "IC50", "setting": "[1]; [4]", "value": 0.84, "unit": "µM"}, {"measurement": "Cytotoxicity CC50 / TC50 / IC50", "setting": "[3]; bladder carcinoma 5637 cells", "value": 68.41, "unit": "µM"}, {"measurement": "IC50", "setting": "[2]", "value": "< 0.156", "unit": "µM"}]}
{"smiles": "CCCCOc1ccc(-c2cc(NC(=O)c3ccc(Br)o3)c(C(=O)O)s2)cc1", "note": "[CID 56643021]", "values": [{"measurement": "IC50", "setting": "[1]; [4]", "value": 0.85, "unit": "µM"}, {"measurement": "IC50", "setting": "[3]", "value": 43.4, "unit": "µM"}, {"measurement": "IC50", "setting": "[2]; second round of synthetic analogues, n = 2", "value": "< 0.625", "unit": "µM"}]}
{"smiles": "O=C(Nc1cc(-c2ccc(OCCC(F)(F)F)cc2)sc1C(=O)O)c1ccc(Br)o1", "note": "[CID 56643022]", "values": [{"measurement": "IC50", "setting": "[1]; read-out: K1 phage IC50, five probe analogues", "value": 0.84, "unit": "µM"}, {"measurement": "IC50", "setting": "[3]", "value": 41.7, "unit": "µM"}, {"measurement": "IC50", "setting": "[2]; five probe analogues", "value": "< 0.625", "unit": "µM"}]}
{"smiles": "O=C(O)c1sc(-c2ccc(OCCCC(F)(F)F)cc2)cc1NC(=O)c1c(F)cccc1F", "note": "[CID 56643024]", "values": [{"measurement": "IC50", "setting": "[1]; [4]", "value": 10.3, "unit": "µM"}]}
{"smiles": "[N-]=[N+]=NCCOc1ccc(-c2cc(NC(=O)c3c(F)cccc3F)c(C(=O)O)s2)cc1", "note": "[CID 56643025]", "values": [{"measurement": "IC50", "setting": "[1]; Escherichia coli, read-out: K1 phage IC50 (inhibition of K1 capsule formation)", "value": "~17", "unit": "µM"}]}
{"smiles": "COC(=O)c1sc(-c2ccc(Cl)cc2)cc1NC(=O)c1ccccc1C(=O)O", "note": "[compound 2814791]", "values": [{"measurement": "% Inhibition at 100 μM", "setting": "[1]", "value": "−0.17", "unit": "%"}]}
{"smiles": "COC(=O)c1sc(-c2ccccc2)cc1NC(=O)c1ccc(F)cc1", "note": "[compound 3669658]", "values": [{"measurement": "% Inhibition at 100 μM", "setting": "[1]", "value": 2.58, "unit": "%"}]}
{"smiles": "COC(=O)c1sc(-c2ccccc2)cc1NC(C)=O", "note": "[compound 4114774]", "values": [{"measurement": "% Inhibition at 100 μM", "setting": "[1]", "value": 0.68, "unit": "%"}]}
{"smiles": "COC(=O)c1sc(-c2ccccc2)cc1NC(=O)c1ccccc1", "note": "[compound 6710528]", "values": [{"measurement": "% Inhibition at 100 μM", "setting": "[1]", "value": 4.18, "unit": "%"}]}
